Here are results for two compounds from patent EP2982368A1, “Small molecule compounds displacing focal adhesion core components” (Universität Konstanz, priority 2014, dated 2016).

The target of data set [1] is T1, FAK/Paxillin (Mus musculus, UniProt P34152+Q8VI36).
T1 construct: expressed in transfected cells; host or cells: mouse fibroblasts stably expressing GFP-FAK
The data set is described as follows: FAK/Paxillin displacement by structurally related compounds (FootLocker series, confocal microscopy). Type of data set: cell-based. How it is done:
To determine whether compounds structurally related to Mb31 and Mb36 are likewise suitable to interfere with FAK localization at focal adhesions, mouse fibroblasts stably expressing GFP-FAK were treated for 30 min with 1, 10 or 20 µM of the following compounds: trans-3-hydroxy-β-nitrostyrene (THBN), trans-4-Chloro-β-nitrostyrene (T4CN), trans-β-nitrostyrene (TBN), 4-chlorocinnamic acid (4CA), and trans-3-(4-bromothiophen-2-yl)acrylic acid (T34BA) (Figures 16 and 17). The cells were analyzed by confocal microscopy for GFP-FAK localization. DMSO treatment served as a vehicle control. […] Additional substituents at the aromatic structures, such as halogen atoms or hydroxy groups may contribute to the reactivity of the compound, but are not essential. Based on these findings, the inventors have extended their structure activity-relationship studies and synthesized additional related compounds, which, similar to Mb31, displace FAK and paxillin at concentrations below 10µM (++), displace FAK and paxillin at concentrations above 10 µM (+), or lack FAK and paxillin displacing activity (-). All these substances were then also nicknamed in the FLocker terminology, resulting in FLocker1 - FLocker24 (Table 2). Table 2: Overview of FootLocker nomenclature, their chemical notation/structure and the activity towards FAK/Paxillin displacement

Data set [2] deals with GFP-FAK mouse embryonic fibroblasts. The data set is described as follows: MTT assay (cell viability). The class given is cell-based. As to conditions: 5 h compound exposure. How it is done: Image J was used to automatically quantify FAK-containing focal adhesions due to local maxima of fluorescence intensity in the GFP-channel (5 to 70 pixel). The number of cells was automatically counted in the Hoechst channel. To test reproducibility of the system 40 control wells were quantified wherein four positions for each well were imaged. […] GFP-FAK mouse embryonic fibroblasts were seeded on fibronectin and incubated for 1 h with the indicated concentrations of the small compounds, respectively. […] GFP-FAK mouse embryonic fibroblasts were seeded on fibronectin and serum-starved overnight. The indicated concentrations of Mb31 were applied for 30 min. Cells were lysed and analyzed for paxillin and FAK protein level as well as FAK Tyr397 phosphorylation. […] The purified kinase domain of FAK was incubated with increasing amounts of Mb31 for 1 h at 30°C together with poly-Glu-Tyr as a FAK substrate. […] Cell viability was assessed by MTT assay. […] Migration was recorded from cells that were cultured without serum (A), with serum (B) or with serum in the presence of 3 µM Mb31 (C). […] Mouse embryonic fibroblasts (MEFs) were transfected with talin-mCherry and talin dynamics analyzed in focal adhesions using fluorescence recovery after photobleaching (FRAP). […] (C) Wound closure was microscopically analyzed and evaluated using ImageJ software. […]
For orientation: Tetrazolium assays rely on reduction of a dye to a coloured formazan, in cell work by metabolically active cells.

Entries after “also recorded” stand apart in the source; their conditions may differ.

T1 sequence (P34152 whole entry): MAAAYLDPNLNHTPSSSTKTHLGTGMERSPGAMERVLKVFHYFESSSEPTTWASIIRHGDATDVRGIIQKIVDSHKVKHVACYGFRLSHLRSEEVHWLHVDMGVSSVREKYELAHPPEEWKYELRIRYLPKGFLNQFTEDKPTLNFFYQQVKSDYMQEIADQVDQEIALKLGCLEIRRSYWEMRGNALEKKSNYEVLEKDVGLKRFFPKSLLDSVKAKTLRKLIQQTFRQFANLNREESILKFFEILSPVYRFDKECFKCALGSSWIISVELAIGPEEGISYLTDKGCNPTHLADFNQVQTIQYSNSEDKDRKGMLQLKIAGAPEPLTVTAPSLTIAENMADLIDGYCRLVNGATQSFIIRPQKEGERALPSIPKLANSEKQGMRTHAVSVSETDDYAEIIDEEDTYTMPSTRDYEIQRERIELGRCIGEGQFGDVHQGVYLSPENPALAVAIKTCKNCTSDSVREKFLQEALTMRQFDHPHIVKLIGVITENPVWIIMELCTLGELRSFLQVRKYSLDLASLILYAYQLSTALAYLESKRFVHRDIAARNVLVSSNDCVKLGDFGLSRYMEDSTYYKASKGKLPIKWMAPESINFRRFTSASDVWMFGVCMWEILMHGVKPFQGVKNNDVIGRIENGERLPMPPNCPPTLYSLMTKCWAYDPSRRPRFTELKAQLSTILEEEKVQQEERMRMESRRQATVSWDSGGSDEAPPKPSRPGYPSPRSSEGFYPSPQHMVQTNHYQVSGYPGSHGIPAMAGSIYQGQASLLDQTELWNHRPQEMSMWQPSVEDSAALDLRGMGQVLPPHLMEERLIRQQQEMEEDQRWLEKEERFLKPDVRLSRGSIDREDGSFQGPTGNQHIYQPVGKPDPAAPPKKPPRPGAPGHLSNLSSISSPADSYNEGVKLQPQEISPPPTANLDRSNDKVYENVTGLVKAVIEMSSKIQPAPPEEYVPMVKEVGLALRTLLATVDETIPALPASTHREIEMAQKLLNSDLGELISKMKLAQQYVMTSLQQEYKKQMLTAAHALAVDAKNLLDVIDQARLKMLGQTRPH
T1 sequence (Q8VI36 whole entry): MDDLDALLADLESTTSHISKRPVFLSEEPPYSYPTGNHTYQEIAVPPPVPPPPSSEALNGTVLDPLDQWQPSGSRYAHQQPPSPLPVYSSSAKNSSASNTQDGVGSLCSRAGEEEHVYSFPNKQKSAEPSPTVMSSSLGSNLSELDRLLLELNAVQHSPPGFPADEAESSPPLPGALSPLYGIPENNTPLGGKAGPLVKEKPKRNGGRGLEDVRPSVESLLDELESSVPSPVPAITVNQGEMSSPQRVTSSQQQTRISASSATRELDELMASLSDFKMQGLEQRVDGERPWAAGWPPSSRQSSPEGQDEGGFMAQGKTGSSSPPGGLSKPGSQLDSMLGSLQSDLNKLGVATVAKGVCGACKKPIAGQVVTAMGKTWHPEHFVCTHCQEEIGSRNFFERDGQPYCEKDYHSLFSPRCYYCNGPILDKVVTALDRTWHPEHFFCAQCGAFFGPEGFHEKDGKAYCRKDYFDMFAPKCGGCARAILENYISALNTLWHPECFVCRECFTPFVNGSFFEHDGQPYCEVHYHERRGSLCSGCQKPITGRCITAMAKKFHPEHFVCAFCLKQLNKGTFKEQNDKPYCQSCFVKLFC

Turning to `Nc1ccc(SC(C[N+](=O)[O-])c2ccc(Cl)cc2)cc1` (stereo not drawn) [FootLocker 2, 4-{[1-(4-chlorophenyl)-2-nitroethyl]thio}aniline], in data set [1], the “compounds showing the most prominent effect on protein-protein interactions at focal adhesion site” value is on record as “most prominent effect” and the “disruption of protein-protein interactions at focal adhesion site” value is “efficiently disrupt protein-protein interactions at focal adhesion site”. Further, the “cell viability / toxicity” value in data set [2] is “do not impair cell viability”.
For `O=[N+]([O-])C=Cc1cc(Br)cs1` [FootLocker 1, 4-bromo-2-(2-nitrovinyl)thiophene], in data set [1], the “compounds showing the most prominent effect on protein-protein interactions at focal adhesion site” value is recorded as “most prominent effect” and the “disruption of protein-protein interactions at focal adhesion site” value was “efficiently disrupt protein-protein interactions at focal adhesion site”. In addition, in data set [2] (listed as Mb31), the “cell viability / toxicity” value is recorded as “do not impair cell viability; also recorded: minor toxicity”.
